Ends that are not written are not given here.
Experiments:
[1] = test system: L. lactis HP; assay: Agar well diffusion assay with purified peptide; format: cell-based, Lactococcus lactis; details: for 100 mg L^−1 Agar Diffusion Zone Area: purified peptide 100 mg L^−1, 50 µl per well, 1.5% agar seeded 0.5% with L. lactis HP, 16 h; for 100 mg L^−1 Agar Diffusion Relative to WT (%): purified peptide 100 mg L^−1 vs L. lactis HP, zone area relative to nisin A
[2] = test system: S. agalactiae ATCC 13813; assay: Deferred antagonism assay of producer strains; format: cell-based, Streptococcus agalactiae; details: for Deferred Antagonism Zone Area: L. lactis NZ9800 producer spotted (approx. 3 µl) on GM17 agar, 16 h 30°C, overlaid with 0.75% agar seeded 0.5% with S. agalactiae ATCC 13813, area of zone minus area of spot; for Deferred Antagonism Relative to WT (%): producer strain vs S. agalactiae ATCC 13813, zone area relative to wild type nisin A producer
[3] = test system: L. lactis HP; assay: Deferred antagonism assay of producer strains; format: cell-based, Lactococcus lactis; details: for Deferred Antagonism Zone Area: L. lactis NZ9800 producer spotted (approx. 3 µl) on GM17 agar, 16 h 30°C, overlaid with 0.75% agar seeded 0.5% with L. lactis HP, area of zone minus area of spot; for Deferred Antagonism Relative to WT (%): producer strain vs L. lactis HP, zone area relative to wild type nisin A producer
[4] = test system: S. agalactiae ATCC 13813; assay: Minimum inhibitory concentration (MIC) assay in broth; format: cell-based, Streptococcus agalactiae; details: for MIC Specific Activity as % of WT: broth, BSA-pretreated 96-well plates, triplicate, 2-fold dilutions from 7.5 µM, 10^5 cfu/ml, 16 h
Protocol: (§1) Minimum inhibitory concentration assays were carried out in triplicate using 96-well plates (Sarstedt) pretreated with bovine serum albumin (BSA) as previously described. Wild type nisin and nisin derivatives were adjusted to a 500 nM (when using L. lactis as a target) or 7.5 µM (all other indicators) starting concentration and 2-fold serial dilutions of each peptide were carried out. An overnight of the target strain was subcultured and incubated to an OD600 nm of 0.5 before being diluted to give a final inoculum of 10^5cfu/ml in 200μl. The plates were incubated at an appropriate temperature and inspected after 16 hours. The MIC was determined as the lowest concentration at which no growth was visible.

[5] = test system: S. aureus RF122; assay: Agar well diffusion assay with purified peptide; format: cell-based, Staphylococcus aureus; details: for 100 mg L^−1 Agar Diffusion Zone Area: purified peptide 100 mg L^−1, 50 µl per well, 1.5% agar seeded 0.5% with S. aureus RF122, 16 h; for 100 mg L^−1 Agar Diffusion Relative to WT (%): purified peptide 100 mg L^−1 vs S. aureus RF122, zone area relative to nisin A
[6] = test system: S. aureus RF122; assay: Minimum inhibitory concentration (MIC) assay in broth; format: cell-based, Staphylococcus aureus; details: BSA-pretreated 96-well plates, triplicate, 2-fold dilutions from 7.5 µM, 10^5 cfu/ml, 16 h
Protocol: as §1

[7] = test system: S. agalactiae ATCC 13813; assay: Agar well diffusion assay with purified peptide; format: cell-based, Streptococcus agalactiae; details: for 100 mg L^−1 Agar Diffusion Zone Area: purified peptide 100 mg L^−1, 50 µl per well, 1.5% agar seeded 0.5% with S. agalactiae ATCC 13813, 16 h; for 100 mg L^−1 Agar Diffusion Relative to WT (%): purified peptide 100 mg L^−1 vs S. agalactiae ATCC 13813, zone area relative to nisin A
[8] = test system: M. smegmatis MC2155; assay: Deferred antagonism assay of producer strains; format: cell-based, Mycobacterium smegmatis; details: for Deferred Antagonism Zone Area: L. lactis NZ9800 producer spotted (approx. 3 µl) on GM17 agar, incubated 40 h, overlaid with 0.75% agar seeded 0.5% with M. smegmatis MC2155, area of zone minus area of spot; for Deferred Antagonism Relative to WT (%): producer strain vs M. smegmatis MC2155, zone area relative to wild type nisin A producer
[9] = test system: M. smegmatis MC2155; assay: Agar well diffusion assay with purified peptide; format: cell-based, Mycobacterium smegmatis; details: for 100 mg L^−1 Agar Diffusion Zone Area: purified peptide 100 mg L^−1, 50 µl per well, 0.75% agar seeded 0.5% with 40 h culture of M. smegmatis MC2155, 40 h; for 100 mg L^−1 Agar Diffusion Relative to WT (%): purified peptide 100 mg L^−1 vs M. smegmatis MC2155, zone area relative to nisin A
[10] = test system: L. lactis HP; assay: Minimum inhibitory concentration (MIC) assay in broth; format: cell-based, Lactococcus lactis; details: BSA-pretreated 96-well plates, triplicate, 2-fold dilutions from 500 nM, 10^5 cfu/ml, 16 h
Protocol: as §1

[11] = test system: S. aureus RF122; assay: Deferred antagonism assay of producer strains; format: cell-based, Staphylococcus aureus; details: for Deferred Antagonism Zone Area: L. lactis NZ9800 producer spotted (approx. 3 µl) on GM17 agar, 16 h 30°C, overlaid with 0.75% agar seeded 0.5% with S. aureus RF122, area of zone minus area of spot; for Deferred Antagonism Relative to WT (%): producer strain vs S. aureus RF122, zone area relative to wild type nisin A producer

SAA: nisin A derivative with hinge region consisting of SAA (rational design) (ITSISLCTPGCKTGALMGCSAATATCHCSIHVSK; also: nisin-type thioether rings and dehydrated residues, not located; UniProt P13068 24-57, looked up, variant N20S M21A K22A)
100 mg L^−1 Agar Diffusion Zone Area [1]: 344.76±18.50 mm^2 | Deferred Antagonism Zone Area [2]: 407.98±18.452 mm^2 | Deferred Antagonism Relative to WT (%) [2]: 180.08% | Deferred Antagonism Zone Area [3]: 483.14±33.89 mm^2 | Deferred Antagonism Relative to WT (%) [3]: 161.28% | MIC Specific Activity as % of WT [4]: 100% | 100 mg L^−1 Agar Diffusion Zone Area [5]: 130.60±4.46 mm^2 | 100 mg L^−1 Agar Diffusion Relative to WT (%) [5]: 131.47% | MIC Specific Activity as % of WT [6]: 25% | 100 mg L^−1 Agar Diffusion Zone Area [7]: 301.62±8.18 mm^2 | 100 mg L^−1 Agar Diffusion Relative to WT (%) [7]: 122.46% | Deferred Antagonism Zone Area [8]: 303.85±59.93 mm^2 | Deferred Antagonism Relative to WT (%) [8]: 592.15% | 100 mg L^−1 Agar Diffusion Zone Area [9]: 101.19±11.510 mm^2 | 100 mg L^−1 Agar Diffusion Relative to WT (%) [9]: 149.27% | MIC Specific Activity as % of WT [10]: 50% | Deferred Antagonism Zone Area [11]: 236.28±13.53 mm^2 | Deferred Antagonism Relative to WT (%) [11]: 170.83%

Nisin A (ITSISLCTPGCKTGALMGCNMKTATCHCSIHVSK; not fully specified; Lantibiotic nisin-A; UniProt P13068 24-57, looked up) [WT, 34 amino acid lantibiotic with three dehydrated amino acids and five thioether rings; hinge N20-M21-K22, reference compound]
100 mg L^−1 Agar Diffusion Zone Area [1]: 267.69±9.21 mm^2 | Deferred Antagonism Zone Area [2]: 226.55±2.96 mm^2 | Deferred Antagonism Zone Area [3]: 299.58±7.04 mm^2 | 100 mg L^−1 Agar Diffusion Zone Area [5]: 99.34±12.33 mm^2 | 100 mg L^−1 Agar Diffusion Zone Area [7]: 246.31±2.74 mm^2 | Deferred Antagonism Zone Area [8]: 51.31±10.08 mm^2 | 100 mg L^−1 Agar Diffusion Zone Area [9]: 67.79±4.308 mm^2 | Deferred Antagonism Zone Area [11]: 138.31±3.36 mm^2

NAI: nisin A derivative with hinge region NAI (ITSISLCTPGCKTGALMGCNAITATCHCSIHVSK; also: nisin-type thioether rings and dehydrated residues, not located; UniProt P13068 24-57, looked up, variant M21A K22I)
100 mg L^−1 Agar Diffusion Zone Area [1]: 371.32±19.60 mm^2 | Deferred Antagonism Zone Area [2]: 318.81±7.915 mm^2 | Deferred Antagonism Relative to WT (%) [2]: 140.72% | Deferred Antagonism Zone Area [3]: 439.52±47.88 mm^2 | Deferred Antagonism Relative to WT (%) [3]: 146.71% | MIC Specific Activity as % of WT [4]: 200% | 100 mg L^−1 Agar Diffusion Zone Area [5]: 129.75±11.36 mm^2 | 100 mg L^−1 Agar Diffusion Relative to WT (%) [5]: 130.61% | MIC Specific Activity as % of WT [6]: 25% | 100 mg L^−1 Agar Diffusion Zone Area [7]: 291.52±8.46 mm^2 | 100 mg L^−1 Agar Diffusion Relative to WT (%) [7]: 118.36% | Deferred Antagonism Zone Area [8]: 270.04±58.30 mm^2 | Deferred Antagonism Relative to WT (%) [8]: 526.26% | 100 mg L^−1 Agar Diffusion Zone Area [9]: 78.50±8.16 mm^2 | 100 mg L^−1 Agar Diffusion Relative to WT (%) [9]: 115.8% | MIC Specific Activity as % of WT [10]: 100% | Deferred Antagonism Relative to WT (%) [11]: 118.02%

SLS: nisin A derivative with hinge region SLS (ITSISLCTPGCKTGALMGCSLSTATCHCSIHVSK; also: nisin-type thioether rings and dehydrated residues, not located; UniProt P13068 24-57, looked up, variant N20S M21L K22S)
100 mg L^−1 Agar Diffusion Zone Area [1]: 321.93±22.43 mm^2 | 100 mg L^−1 Agar Diffusion Relative to WT (%) [1]: 120.26% | Deferred Antagonism Zone Area [2]: 209.45±17.11 mm^2 | Deferred Antagonism Relative to WT (%) [2]: 92.45% | Deferred Antagonism Zone Area [3]: 370.75±28.28 mm^2 | Deferred Antagonism Relative to WT (%) [3]: 123.76% | MIC Specific Activity as % of WT [4]: 25% | 100 mg L^−1 Agar Diffusion Zone Area [5]: 98.82±10.14 mm^2 | 100 mg L^−1 Agar Diffusion Relative to WT (%) [5]: 99.47% | MIC Specific Activity as % of WT [6]: <6% | 100 mg L^−1 Agar Diffusion Zone Area [7]: 226.05±4.10 mm^2 | 100 mg L^−1 Agar Diffusion Relative to WT (%) [7]: 91.78% | Deferred Antagonism Zone Area [8]: 230.31±20.31 mm^2 | Deferred Antagonism Relative to WT (%) [8]: 448.84% | 100 mg L^−1 Agar Diffusion Zone Area [9]: 119.56±8.59 mm^2 | 100 mg L^−1 Agar Diffusion Relative to WT (%) [9]: 176.36% | MIC Specific Activity as % of WT [10]: 25% | Deferred Antagonism Zone Area [11]: 153.93±7.15 mm^2 | Deferred Antagonism Relative to WT (%) [11]: 111.29%

AAA: nisin A derivative with hinge region consisting of AAA (rational design) (ITSISLCTPGCKTGALMGCAAATATCHCSIHVSK; not fully specified; also: nisin-type thioether rings and dehydrated residues, not located; UniProt P13068 24-57, looked up, variant N20A M21A K22A)
100 mg L^−1 Agar Diffusion Zone Area [1]: 416.00±17.99 mm^2 | 100 mg L^−1 Agar Diffusion Relative to WT (%) [1]: 155.41% | Deferred Antagonism Zone Area [2]: 401.32±15.62 mm^2 | Deferred Antagonism Relative to WT (%) [2]: 177.14% | Deferred Antagonism Zone Area [3]: 492.83±40.27 mm^2 | Deferred Antagonism Relative to WT (%) [3]: 164.51% | Improvement in broth based specific activity relative to the natural peptide ([4]; broth based specific activity (MIC) assay): two-fold improvement | MIC Specific Activity as % of WT [4]: 200% | 100 mg L^−1 Agar Diffusion Zone Area [5]: 155.77±3.30 mm^2 | 100 mg L^−1 Agar Diffusion Relative to WT (%) [5]: 156.81% | MIC Specific Activity as % of WT [6]: 25% | 100 mg L^−1 Agar Diffusion Zone Area [7]: 305.58±2.39 mm^2 | 100 mg L^−1 Agar Diffusion Relative to WT (%) [7]: 124.06% | Deferred Antagonism Zone Area [8]: 277.65±60.42 mm^2 | Deferred Antagonism Relative to WT (%) [8]: 541.09% | 100 mg L^−1 Agar Diffusion Zone Area [9]: 149.24±4.776 mm^2 | 100 mg L^−1 Agar Diffusion Relative to WT (%) [9]: 220.15% | MIC Specific Activity as % of WT [10]: 100% | Deferred Antagonism Zone Area [11]: 292.24±11.46 mm^2 | Deferred Antagonism Relative to WT (%) [11]: 211.29%

From PMC3823697, “Intensive Mutagenesis of the Nisin Hinge Leads to the Rational Design of Enhanced Derivatives” (PLoS ONE, 2013)
